From patent US7314620B2, “Methods for diagnosis and treatment of PH domain signal transduction disorders” (New York University, priority 1995, dated 2008)
Where “and” joins values, the source holds several entries; their conditions need not be identical. Equal values may be shown once. Entries after “also recorded” stand apart in the source; their conditions may differ. Read-outs that look alike come from different tables or passages of the source. One block for each molecule: values may come before it.

What was measured:
PLCδ-PH [1] = molecular target: T1, PLCδ-PH (Rattus norvegicus, UniProt P10688); assay: Spin-column competition assay for 3H-I(145)P3 binding to PLCδ-PH; settings: for competition for I(145)P3 binding by lipid vesicles: lipid at 5% in DMPC vesicles or pure DMPC, assuming 50% of lipid on the surface
T1 construct: initiator methionine (N); made in house; host or cells: Escherichia coli (pET11a, T7 system)
T1 sequence (P10688 20-136): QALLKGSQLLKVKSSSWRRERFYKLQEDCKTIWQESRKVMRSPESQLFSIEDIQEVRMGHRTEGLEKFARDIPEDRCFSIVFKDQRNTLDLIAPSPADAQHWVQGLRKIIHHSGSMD
Procedure: A spin-column based competition assay was employed to determine relative affinities of other inositol polyphosphates for PLCδ-PH. […] The sample (40 μl) was then applied to a Biogel P6 gel filtration spin-column. […] Each curve represents the mean of two or more experiments.
The sample was then applied to a pre-spun 1 ml spin-column containing Biogel P6 desalting medium. The spin-column was then centrifuged for 4 minutes at 900 g. Essentially all of the protein was determined to pass through the column under these conditions, and no significant counts were seen to pass through the column in the absence of protein. After spinning, all of the material that passed through the column was added to scintillation fluid for counting. Counts were normalized to those obtained in the absence of competitor, and plotted as fraction of maximal binding. […]
Values for which a precise number is given represent the mean of at least two experiments.

[2] = test system: any PH domain (PLCδ-PH, Dyn-PH, PlecN-PH); assay: Centrifugation-based assay of PH domain binding to lipid vesicles; settings: lipid at 5% in DMPC vesicles
Procedure: Attempts to detect PH domain association with lipid vesicles were performed exactly as described by Harlan, J. E. et al., Nature 371, 168-170, 1994. In addition to using the BCA protein assay reagent, for which lipid blanks were rather high compared with the values expected for the protein concentrations employed, we also measured OD278 of the supernatants after addition of SDS in order to detect removal of protein upon pelleting vesicles. […] Initially, we performed a centrifugation-based assay, using the conditions described by Harlan, J. E. et al., Nature 371, 168-170, 1994. […] Similarly, we were unable to detect association of any of the PH domains with the same vesicles by using size-exclusion chromatography to separate protein and lipid. Any complexes between the PH domains and these vesicles therefore form with low affinity and/or have fast dissociation kinetics, such that they dissociate in the separation methods employed.

[3] = molecular target: T2, Dyn-PH (PH domain of dynamin) (Homo sapiens, UniProt Q05193); assay: Gel filtration of 3H-labeled IP3 with PH domain; assay type: binding; settings: PH domain 10 μM, IP3 20 μM
T2 construct: The PH domains from PLC-δ1, and dynamin, as well as the N-terminal PH domain of pleckstrin; made in house; host or cells: Escherichia coli (T7 system)
T2 sequence (Q05193 519-625 limits assumed): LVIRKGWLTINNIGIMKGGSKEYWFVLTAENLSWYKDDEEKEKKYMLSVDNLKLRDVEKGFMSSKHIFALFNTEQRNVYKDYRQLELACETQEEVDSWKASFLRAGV
Procedure: (§1) For gel-filtration studies, PH domain at 10 μM was mixed with 20 μM IP3, containing 100 nCi of the appropriate ^3H-labeled isomer. A 200 μl sample was applied to a BioRad BiogelP6 desalting column, and 40 fractions of 300 μl were collected. A Bio-Rad protein assay was performed on […] of each fraction to determine the elution position of the protein, and scintillation counting of the remainder was used to detect the elution positions of IP3. Experiments were performed in either 50 mM MOPS, 100 mM NaCl, pH 6.8, or 100 mM NH4OAc, pH 6.8.

[4] = molecular target: T3, PlecN-PH (N-terminal PH domain of pleckstrin) (Homo sapiens, UniProt P08567); assay: Gel filtration of 3H-labeled IP3 with PH domain; assay type: binding; settings: PH domain 10 μM, IP3 20 μM
T3 construct: residues 1-110 of pleckstrin (PlecN-PH); initiator methionine (N); made in house; host or cells: Escherichia coli (pET11a, T7 system)
T3 sequence (P08567 1-110): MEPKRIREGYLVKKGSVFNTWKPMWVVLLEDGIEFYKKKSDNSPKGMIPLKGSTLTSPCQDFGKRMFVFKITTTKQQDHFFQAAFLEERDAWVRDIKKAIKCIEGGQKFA
Procedure: as §1

PLCδ-PH [5] = molecular target: T1, PLCδ-PH; assay: Gel filtration of 3H-labeled IP3 with PH domain; assay type: binding; settings: PH domain 10 μM, IP3 20 μM
Procedure: as §1

[6] = molecular target: T4, PLCδ-PH (PH domain of rat PLC-δ1) (Rattus norvegicus, UniProt P10688); assay: Isothermal titration calorimetry of inositol polyphosphate / PIP2 vesicle binding to PLCδ-PH
T4 construct: initiator methionine (N); made in house; host or cells: Escherichia coli (pET11a, T7 system)
T4 sequence (P10688 20-136): T1 sequence (P10688 20-136)
Procedure: The resulting titration curve was fit using Omega software (Wiseman et al., 1989).
All experiments utilized the OMEGA instrument from MicroCal (Wiseman, T. et al., Anal. Biochem. 179, 131-137, 1989), in the laboratory of Prof. Julian Sturtevant at Yale. Titrations were performed at 25° C. in 50 mM MOPS, 100 mM NaCl, pH 6.8 or 100 mM NH4OAc at pH 6.8. […] For each titration, PH domain solution was dialyzed exhaustively against the buffer used for dilution of highly concentrated stocks of ligand. Heats for dilution of the ligand solutions were determined in separate titrations of ligand into buffer solution present in the cell.
Higher concentrations were employed for weaker binding events. […] Stoichiometry, binding constant (Kβ) and ΔH were all allowed to float in the fitting procedure.
A titration curve such as that to an equation describing a simple-binding reaction (Wiseman, T. et al., Anal. Biochem. 179, 131-137, 1989). From this fit, values for the binding constant, stoichiometry and ΔH for the binding reaction are ascertained. […] Ferris, C. D. et al, Nature, 342, 87-89, 1989.

[7] = ratio of molar excess for 50% competition to that of unlabeled I(145)P3, multiplied by 0.2 μM, read-out: KD (μM) by competition assay
[8] = from concentrations required to reduce 3H-I(145)P3 binding by 50%, read-out: KD from competition assay

Kd (PLCδ-PH [1]; [7]): > 60 µM
Molecule: O=S(=O)(O)OC1C(OS(=O)(=O)O)C(OS(=O)(=O)O)C(OS(=O)(=O)O)C(OS(=O)(=O)O)C1OS(=O)(=O)O (centres unmarked) [I(SO4)6, inositol hexasulfate]

Kd (PLCδ-PH [1]; [7]): > 2 µM
Molecule: O=P(O)(O)O[C@H]1[C@H](O)[C@@H](OP(=O)(O)O)[C@H](OP(=O)(O)O)[C@@H](OP(=O)(O)O)[C@H]1O [D-I(1345)P4]

Kd (PLCδ-PH [1]; [7]): > 12 µM
Molecule: O=P(O)(O)O[C@@H]1C(O)[C@@H](OP(=O)(O)O)[C@@H](O)C(O)[C@H]1O (stereo partly drawn) [D-I(24)P2]

Kd (PLCδ-PH [1]; [8]): > 50 µM
Kd (PLCδ-PH [1]; [7]): > 12 µM
Molecule: O=P(O)(O)O[C@@H]1[C@@H](O)[C@H](O)[C@H](O)[C@H](O)[C@H]1OP(=O)(O)O [D-I(45)P2]

Kd (PLCδ-PH [1]; [7]): > 60 µM
Molecule: O=P(O)(OCC(O)CO)OC1C(O)C(O)C(O)C(O)C1O (centres unmarked) [GPI, 1-(a-glycerophosphoryl)-inositol]

binding to vesicles [2]: no binding
Molecule: phosphatidylserine [PS]
competition for I(145)P3 binding by lipid vesicles (PLCδ-PH [1]): no detectable competition; also recorded: did not compete

Continued, molecule first:

Molecule: O=P(O)(O)O[C@@H]1[C@@H](O)[C@H](OP(=O)(O)O)[C@@H](OP(=O)(O)O)[C@H](O)[C@@H]1O [L-I(145)P3]
Kd (PLCδ-PH [1]; [8]): 13 µM
Kd (PLCδ-PH [1]; [7]): 8.1 µM

Molecule: O=P(O)(O)O[C@H]1[C@H](O)[C@@H](O)[C@H](OP(=O)(O)O)[C@@H](O)[C@H]1O [D-I(14)P2]
Kd (PLCδ-PH [1]; [8]): > 50 µM
Kd (PLCδ-PH [1]; [7]): > 12 µM

Molecule: phosphatidylinositol [PI]
binding to vesicles [2]: no binding
competition for I(145)P3 binding by lipid vesicles (PLCδ-PH [1]): no detectable competition; also recorded: did not compete

Molecule: O=P(O)(O)OC1[C@@H](O)[C@H](O)C(O)[C@H](O)[C@H]1O (some centres unmarked) [I-2-P, inositol-2-phosphate]
Kd (PLCδ-PH [1]; [7]): > 60 µM

Molecule: O=P(O)(O)OC1C(O)C(O)C(OP(=O)(O)O)C(OP(=O)(O)O)C1O (single isomer, unassigned) [D-I(134)P3]
binding detected by gel filtration [3]: neither Dyn-PH nor PlecN-PH was seen to bind; also recorded: Neither PlecN-PH nor Dyn-PH showed evidence of binding
binding detected by gel filtration [4]: neither Dyn-PH nor PlecN-PH was seen to bind; also recorded: Neither PlecN-PH nor Dyn-PH showed evidence of binding
binding detected by gel filtration (PLCδ-PH [5]): no binding
Kd (PLCδ-PH [1]; [7]): > 12 µM

Molecule: CCCCCCCCCCCCCC(=O)OC[C@H](COP(=O)([O-])OCC[N+](C)(C)C)OC(=O)CCCCCCCCCCCCC [DMPC, dimyristoylphosphatidylcholine]
competition for I(145)P3 binding by lipid vesicles (PLCδ-PH [1]): did not compete
competition for I(145)P3 binding by lipid vesicles (PLCδ-PH [1]; listed as PC): no detectable competition

Molecule: O=P(O)(O)OC1C(O)C(O)C(OP(=O)(O)O)C(OP(=O)(O)O)C1O (single isomer, unassigned) [D-I(245)P3]
Kd (PLCδ-PH [1]; [8]): 7.5 µM
Kd (PLCδ-PH [1]; [7]): 4.7 µM

Molecule: O=P(O)(O)O[C@@H]1[C@@H](O)[C@H](OP(=O)(O)O)[C@@H](OP(=O)(O)O)[C@@H](O)[C@H]1OP(=O)(O)O [D-I(1346)P4]
Kd (PLCδ-PH [1]; [7]): 5.3 µM

Molecule: O=P(O)(O)O[C@H]1[C@H](OP(=O)(O)O)[C@@H](OP(=O)(O)O)[C@@H](O)[C@@H](O)[C@@H]1OP(=O)(O)O [D-I(3456)P4]
Kd (PLCδ-PH [1]; [7]): 3.2 µM

Molecule: O=P(O)(O)O[C@@H]1[C@@H](O)[C@@H](O)[C@@H](OP(=O)(O)OC[C@H](O)CO)[C@H](O)[C@H]1OP(=O)(O)O [GPIP2, 1-(a-glycerophosphoryl)-D-inositol-4,5-bisphosphate]
Kd (PLCδ-PH [1]; PIP2: 5% in DMPC vesicles, assuming 50% available, read-out: KD from competition assay): 0.4 µM
Kd (PLCδ-PH [1]; [7]): 0.45 µM
binding weaker than I(145)P3 (PLCδ-PH [1]; relative to I(145)P3 binding to PLCδ-PH): two-fold
Kd ([6]; ITC, read-out: KD (dissociation constant)): 0.4 µM
binding affinity in words ([6]; PIP2 in vesicles): submicromolar affinities
ΔG ([6]; individual titrations, 25° C): -8.86 kcal/M and -8.72 kcal/M
ΔH ([6]; individual titrations, 25° C): -13.5 ± 0.1 kcal/M and -13.2 ± 0.1 kcal/M
ΔS ([6]; individual titrations, 25° C): −15.6 cal · M^−1 · K^−1 and −15.2 cal · M^−1 · K^−1
Stoichiometry n ([6]; individual titrations, 25° C, pH 6.8, quoted for IPn as the ligand, PIP2 in vesicles assuming 50% available): 1.08 ± 0.01 and 1.14 ± 0.01
Kd ([6]; individual titrations, 25° C, pH 6.8, read-out: KD): 0.32 µM and 0.4 µM
Stoichiometry n ([6]; mean of the titrations): 1.11 ± 0.04
ΔG ([6]; mean of the titrations): -8.79 ± 0.10 kcal/M
ΔH ([6]; mean of the titrations): -13.4 ± 0.2 kcal/M
ΔS ([6]; mean of the titrations): −15.4 ± 0.3 cal · M^−1 · K^−1
Kd ([6]; mean of the titrations, read-out: KD): 0.36 ± 0.06 µM

Molecule: O=P(O)(O)O[C@H]1[C@H](OP(=O)(O)O)[C@@H](OP(=O)(O)O)[C@H](O)[C@@H](O)[C@H]1OP(=O)(O)O [D-I(1256)P4]
Kd (PLCδ-PH [1]; [7]): 12 µM
